{"source": "patent US11555072B2", "about": "“A33 antibody compositions and methods of using the same in radioimmunotherapy” (MEMORIAL SLOAN KETTERING CANCER CENTER, priority 2017, dated 2023)", "key": {"[1]": {"target": "T1, GPA33 (Homo sapiens, UniProt Q99795)", "T1 construct": "endogenous in cells; host or cells: human colon cancer cell lines (e.g. LS174T, SW1222, Colo205) and gastric cancer cell line SNU16", "T1 sequence (Q99795 22-319)": "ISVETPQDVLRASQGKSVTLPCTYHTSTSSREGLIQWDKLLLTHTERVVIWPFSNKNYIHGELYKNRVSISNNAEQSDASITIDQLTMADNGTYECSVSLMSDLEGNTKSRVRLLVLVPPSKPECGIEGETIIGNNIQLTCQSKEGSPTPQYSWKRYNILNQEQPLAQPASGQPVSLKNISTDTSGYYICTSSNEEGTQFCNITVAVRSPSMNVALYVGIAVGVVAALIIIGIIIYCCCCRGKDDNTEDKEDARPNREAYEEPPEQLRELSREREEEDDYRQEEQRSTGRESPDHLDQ", "assay": "FACS staining of tumor cell lines", "type": "cell-based", "settings": "panel of GPA33(+) and GPA33(−) cell lines", "from_the_text": "(§1) Antibodies and flow cytometry. Antibodies anti-hCD25-PE, anti-CD69-PE, anti-hCD8-APC, anti-hCD45-PECy7, anti-hCD4-PE, anti-hCD4-BV421, anti-hCD62L-PercpCy5.5, anti-hPD1-BV421, anti-hCD45RO-PECy7, were purchased from BIOLEGEND® (San Diego, Calif.). Goat anti-human IgG-PE was purchased from SouthernBiotech (Birmingham, Ala.). Streptavidin-PE, anti-hCD4-APC and anti-hCD25-APC were purchased from BD Biosciences (San Jose, Calif.). All FACS analysis was done using FACSCalibur or LSRII system (BD Biosciences, San Jose, Calif.) and analyzed using FlowJo (FLOWJO, Ashland, Oreg.).\n(§2) The avidities of huA33-BsAb towards GPA33 at both 25° C. and 37° C. were measured using GPA33 immobilized CM5 chips."}, "[2]": {"target": "T2, CD3 on T cell surface (Homo sapiens, UniProt P07766)", "T2 construct": "endogenous in cells", "T2 sequence (P07766 23-207)": "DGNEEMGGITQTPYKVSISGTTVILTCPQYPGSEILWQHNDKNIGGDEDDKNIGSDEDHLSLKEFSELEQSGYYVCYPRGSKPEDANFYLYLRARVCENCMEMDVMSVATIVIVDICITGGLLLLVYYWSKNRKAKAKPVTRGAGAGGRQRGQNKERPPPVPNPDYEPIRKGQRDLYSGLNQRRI", "T2 sequence (P09693 23-182 partner)": "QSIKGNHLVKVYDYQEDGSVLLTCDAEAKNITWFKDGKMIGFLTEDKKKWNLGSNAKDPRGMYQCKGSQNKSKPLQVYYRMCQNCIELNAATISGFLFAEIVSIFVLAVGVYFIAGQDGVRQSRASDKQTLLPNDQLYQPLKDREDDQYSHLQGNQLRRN", "T2 sequence (P04234 22-171 partner)": "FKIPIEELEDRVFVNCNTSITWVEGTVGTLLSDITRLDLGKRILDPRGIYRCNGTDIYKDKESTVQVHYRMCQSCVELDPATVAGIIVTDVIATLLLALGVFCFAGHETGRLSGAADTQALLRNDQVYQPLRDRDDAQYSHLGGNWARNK", "T2 sequence (P20963 22-164 partner)": "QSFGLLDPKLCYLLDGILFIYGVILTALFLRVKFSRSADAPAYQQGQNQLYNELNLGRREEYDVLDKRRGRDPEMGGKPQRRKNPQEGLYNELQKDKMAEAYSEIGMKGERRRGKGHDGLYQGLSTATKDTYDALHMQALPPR", "assay": "FACS staining of activated T cells", "type": "cell-based", "from_the_text": "as §1, §2"}, "[3]": {"system": "T cells", "assay": "T cell activation and proliferation assay (CFSE-labeled PBMCs plus tumor cells)", "type": "cell-based, human", "protocol": "T cell proliferation assay. Fresh PBMCs from healthy donors were labeled with […] CFSE (Life Technologies Corp., Carlsbad, Calif.) for 5 min at room temperature, followed by neutralization using PBS containing 5% FBS. Target cells were then incubated with labeled PBMCs under different conditions at 37° C. before analyzing the expression of surface activation markers and T cell proliferation at 24 hours and 96 hours.\nHuA33-BsAb activated and induced cell cycle entry of fresh T cells."}, "[4]": {"system": "GPA33-expressing cancer cells", "assay": "T-cell dependent cytotoxicity (TDCC) assay with activated T cells", "type": "cell-based, human", "protocol": "(§3) T-cell dependent cytotoxicity (TDCC) assays. Cytotoxicity assays were performed using both ^51Cr-release assay and Pierce LDH-release assay (Thermo Fisher Scientific, Cambridge, Mass.). For both assays, T cells activated by exposure to anti-CD3/anti-CD28 Dynabeads for 14 days were subsequently used as effector cells, excepted for sorted cells from PBMCs, which were used for TDCC assay without prior stimulation. ^51Cr assay was performed as previously described in Cheng M et al., International Journal of Cancer 136:476-486 (2015). LDH assay was conducted according to the manufacturer's instructions with the following modifications. Briefly, for each assay well of a 96-well round-bottom plate, 1.5×10^4 target cells were incubated with variable number of effector cells, depending on the intended E:T ratios. Antibodies were then added at different dilutions and the plates were incubated at 37° C. for 16 hours. Each condition was done in triplicates. Supernatant was then transferred to a flat bottom plate with reaction substrate and incubated for 30 min before reading at 490 nm, with 680 nm as a reference wavelength. EC50 values were calculated by fitting the curves to a 4-parameter nonlinear regression model using GraphPad Prism.\nCancer cells were incubated with activated T cells at an effector to target ratio of 10:1 in the presence of 10-fold serial dilutions of huA33-BsAb. GPA33(−) melanoma cell line SKMEL5 and […] cell line TC32 were used as negative controls. […] Maximal level of cytotoxicity seemed to correlate with the level of FACS staining (FIG. 1(D) and FIG. 4(A)). Moreover, TDCC induced by huA33-BsAb was potent, with EC50 values in the pM range."}, "[5]": {"system": "Colo205 cells", "assay": "TDCC assay with sorted fresh T cell subsets", "type": "cell-based, human", "protocol": "as §3, with “Antibodies were then added at different dilutions and the plates were incubated at 37° C. for 16 hours.” left out\nTo determine which subsets of T cells were mobilized by huA33-BsAb, CD45RA(+)CD62L(+) and CD45RA(−)CD45RO(+)CD62L(−) memory subsets from both CD4(+) and CD8(+) T cells were sorted. […]"}}}
{"substance": "huA33-BsAb: huA33 IgG with humanized OKT3 scFv fused to light chain C-terminus, N297A and K322A; SEQ ID NO: 19 and 21", "values": [{"measurement": "FACS staining of cancer cell lines", "setting": "[1]", "result": "stained colon cancer cell lines and one gastric cancer cell line but not GPA33(−) neuroblastoma cell line IMR32, osteosarcoma cell line TC32 or melanoma cell line SKMEL5"}, {"measurement": "staining of activated T cells", "setting": "[2]", "result": "bound to CD3 on T cell surface"}, {"measurement": "PD-1 upregulation on T cells", "setting": "[3]; PBMCs + Colo205, 24 and 96 hours", "result": "PD-1 upregulation was observed after 24 hours and persisted until 96 hours"}, {"measurement": "T cell division by CFSE dye dilution", "setting": "[3]; PBMCs + Colo205, 96 hours", "result": "observed in both CD4(+) and CD8(+) T cells after 96 hours"}, {"measurement": "T cell activation (upregulation of CD25 and CD69 markers)", "setting": "[3]; PBMCs + Colo205, E:T 5, 1 μg/ml, 24 hours", "result": "caused activation of both CD4(+) and CD8(+) T cells"}, {"measurement": "T cell activation with GPA33(−) target cells", "setting": "[3]; SKMEL5 target cells, 96 hours", "result": "did not activate T cells"}, {"measurement": "redirected T cell killing of GPA33-expressing cancer cells", "setting": "[4]; LS174T, SW1222, Colo205, SNU16, activated T cells, E:T 10:1, 16 hours", "result": "specifically kill all GPA33-expressing cancer cells"}, {"measurement": "redirected T cell killing of GPA33(−) control cells", "setting": "[4]; SKMEL5 and TC32, E:T 10:1", "result": "sparing SKMEL5 and TC32"}, {"measurement": "TDCC EC50 values", "setting": "[4]; activated T cells, E:T 10:1", "result": "pM range"}, {"measurement": "CD25 expression on T cells from the TDCC assay", "setting": "[5]; CD45RO+ and CD45RO− fractions, 48 hours", "result": "CD25 expression was upregulated"}, {"measurement": "cytotoxicity by sorted T cell subsets", "setting": "[5]; Colo205, E:T 5:1, 48 hours, LDH assay", "result": "both CD4(+) and CD8(+) memory T cell subsets were capable of inducing cytotoxicity"}]}
